According to patent US6849598B1, “Therapeutic compositions comprising bactericidal/permeability-increasing (BPI) protein products” (XOMA, priority 1995, dated 2005):
Where two headings read alike, the source gives them in different places.

Columns and labels:
[1] = test system: E. faecium; experiment: Antibiotic susceptibility (MIC, Sensititre Trays) with rBPI21 poloxamer formulations; assay type: cell-based; details: for MIC: Enterococcus faecium, read-out: Minimum Inhibitory Concentration; on susceptibility interpretation of MIC (superscript): key: clinically resistant (R); intermediate (I); susceptible (S)
[2] = test system: A. baumannii; experiment: Bactericidal activity in serum, broth or water, CFU after 4 hours (Example 2); assay type: cell-based
Procedure: The bactericidal activity of therapeutic compositions comprising BPI protein product and either poloxamer 333 (PLURONIC P103, BASF Wyandotte Corp.) or heat-treated PLURONIC P103, was evaluated against the clinical isolates of Example 1. Therapeutic compositions comprising 160 μg/mL rBPI21 and varying concentrations of either PLURONIC P103 or heat-treated PLURONIC P103 were formulated by diluting a 2 mg/mL solution of “non-formulated” rBPI21 (in buffer comprising 5 mM sodium citrate and 150 mM NaCl, without any surfactants) with the appropriate amounts of PLURONIC P103 or heat-treated PLURONIC P103 solutions. A “formulated” rBPI21 solution containing 2 mg/mL rBPI21, 0.2% poloxamer 188 (PLURONIC F68, BASF Wyandotte Corp.), 0.002% TWEEN 80 (polysorbate 80, ICI Americas, Wilmington, Del.), 5 mM sodium citrate and 150 mM NaCl was also tested for comparison. Poloxamer control solutions containing only 0.1% PLURONIC P103 or 0.1% heat-treated PLURONIC P103, and no rBPI21, were also prepared.
A 0.1% (w/v) solution of PLURONIC P103 was prepared by stirring the PLURONIC P103 in deionized water until dissolved and filtering the solution through a […] cellulose acetate polystyrene filter unit (Corning Inc., Corning, N.Y.). […]
The bacteria to be used in the assays were grown on tryptic soy agar (TSA) plates (Remel, Catalog #01-920, Lenexa, Kans.) for 24 hours. […] A bacterial stock emulsion was prepared by emulsifying bacterial colonies in sterile deionized water to approximately 2.2 to 3.8×10^8 colony forming units (CFU)/mL as measured by a Microscan® Turbidity Meter (Dade Microscan, West Sacramento, Calif.), and diluting further by 1:10 in water. […] Following incubation, the remaining colony forming units (CFU) in each well were counted at a 10^−2 dilution by plating 10 μL from each well onto TSA plates. The TSA plates were incubated at 37° C. for 24 hours and the number of bacterial colonies were visually counted. […]

[3] = CSMHB, 16 μg/mL rBPI21 with F68
[4] = CSMHB, 16 μg/mL rBPI21 with P103
[5] = CSMHB, 16 μg/mL rBPI21 with P104
[6] = CSMHB, 16 μg/mL rBPI21 with P105
[7] = CSMHB, 16 μg/mL rBPI21 with P123
[8] = Serum, 16 μg/mL rBPI21 with F68
[9] = Serum, 16 μg/mL rBPI21 with P103
[10] = Serum, 16 μg/mL rBPI21 with P104
[11] = Serum, 16 μg/mL rBPI21 with P105
[12] = Serum, 16 μg/mL rBPI21 with P123

O=C(N[C@H](CO)[C@H](O)c1ccc([N+](=O)[O-])cc1)C(Cl)Cl [Chloramphenicol]
S: susceptibility interpretation of MIC (superscript) [1, 3] | susceptibility interpretation of MIC (superscript) [1, 4] | susceptibility interpretation of MIC (superscript) [1, 5] | susceptibility interpretation of MIC (superscript) [1, 6] | susceptibility interpretation of MIC (superscript) [1, 7] | susceptibility interpretation of MIC (superscript) [1, 8] | susceptibility interpretation of MIC (superscript) [1, 9] | susceptibility interpretation of MIC (superscript) [1, 10] | susceptibility interpretation of MIC (superscript) [1, 11] | susceptibility interpretation of MIC (superscript) [1, 12] | susceptibility interpretation of MIC (superscript) ([1]; Serum, Control (no BPI))
< 4 µg/mL: MIC [1, 3] | MIC [1, 4] | MIC [1, 5] | MIC [1, 6] | MIC [1, 7]
16 µg/mL: MIC ([1]; CSMHB, Control (no BPI))
8 µg/mL: MIC [1, 8] | MIC [1, 9] | MIC [1, 10] | MIC [1, 11] | MIC [1, 12] | MIC ([1]; Serum, Control (no BPI))
I: susceptibility interpretation of MIC (superscript) ([1]; CSMHB, Control (no BPI))

B1: rBPI21: expression product of DNA encoding amino acid 1 to approximately 193 or 199 of BPI holoprotein, cysteine 132 substituted with alanine (protein, UniProt P17213 32-224, looked up, variant C132A)
chain: VNPGVVVRISQKGLDYASQQGTAALQKELKRIKIPDYSDSFKIKHLGKGHYSFYSMDIREFQLPSSQISMVPNVGLKFSISNANIKISGKWKAQKRFLKMSGNFDLSIEGMSISADLKLGSNPTSGKPTITASSCSSHINSVHVHISKSKVGWLIQLFHKKIESALRNKMNSQVCEKVTNSVSSELQPYFQTL
>5000 100's of CFUs: colony forming units after 4 hours ([2]; Broth, bacteria only >5000)
>2000 100's of CFUs: colony forming units after 4 hours ([2]; Serum, bacteria only >2000)
519 100's of CFUs: colony forming units after 4 hours ([2]; Water, bacteria only >2000)
